# Laboratory results reported in patent publication US9725416B2, “Ethynyl derivatives” (Hoffmann-La Roche Inc., priority 2014, dated 2017).
# Key:
# [1] = test system: 6-OHDA rodent model of PD; conditions: cited from earlier work
# mice treated with MPTP = conditions: cited from earlier work
# mice [2] = conditions: reported by Addex 2010; cited from earlier work
# mice [3] = conditions: reported by Addex 2010; cited from earlier work; remark: listed apart in the source
# rats = conditions: cited from earlier work
# human mGlu4 receptor = molecular target: T1, human mGlu4 receptor (Homo sapiens, UniProt Q14833); test: Ca2+ mobilization in vitro assay on recombinant human mGlu4 expressed in HEK293 cells (mGlu4 PAM); format: cell-based; conditions: for Emax: HEK293, maximal response in % of the maximal stimulatory effect obtained with saturating concentrations of L-AP4, read-out: Eff. (%); for EC50: HEK-293 cells, Ca2+ mobilization, L-AP4 added at EC20
# T1 construct: expressed in transfected cells; host or cells: HEK-293 (monoclonal, stably transfected)
# Method in brief: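 HEK293 line stably expressing human mGlu4 (low expression, low constitutive activity), Fluo-4AM loaded; compounds (11 half-log dilutions) preincubated 10-30 min at 37 °C, then L-AP4 added at its EC20, determined daily. EC50 from peak fluorescence minus basal, normalized to saturating L-AP4 maximum, four-parameter fit.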
# T1 sequence (Q14833 33-912): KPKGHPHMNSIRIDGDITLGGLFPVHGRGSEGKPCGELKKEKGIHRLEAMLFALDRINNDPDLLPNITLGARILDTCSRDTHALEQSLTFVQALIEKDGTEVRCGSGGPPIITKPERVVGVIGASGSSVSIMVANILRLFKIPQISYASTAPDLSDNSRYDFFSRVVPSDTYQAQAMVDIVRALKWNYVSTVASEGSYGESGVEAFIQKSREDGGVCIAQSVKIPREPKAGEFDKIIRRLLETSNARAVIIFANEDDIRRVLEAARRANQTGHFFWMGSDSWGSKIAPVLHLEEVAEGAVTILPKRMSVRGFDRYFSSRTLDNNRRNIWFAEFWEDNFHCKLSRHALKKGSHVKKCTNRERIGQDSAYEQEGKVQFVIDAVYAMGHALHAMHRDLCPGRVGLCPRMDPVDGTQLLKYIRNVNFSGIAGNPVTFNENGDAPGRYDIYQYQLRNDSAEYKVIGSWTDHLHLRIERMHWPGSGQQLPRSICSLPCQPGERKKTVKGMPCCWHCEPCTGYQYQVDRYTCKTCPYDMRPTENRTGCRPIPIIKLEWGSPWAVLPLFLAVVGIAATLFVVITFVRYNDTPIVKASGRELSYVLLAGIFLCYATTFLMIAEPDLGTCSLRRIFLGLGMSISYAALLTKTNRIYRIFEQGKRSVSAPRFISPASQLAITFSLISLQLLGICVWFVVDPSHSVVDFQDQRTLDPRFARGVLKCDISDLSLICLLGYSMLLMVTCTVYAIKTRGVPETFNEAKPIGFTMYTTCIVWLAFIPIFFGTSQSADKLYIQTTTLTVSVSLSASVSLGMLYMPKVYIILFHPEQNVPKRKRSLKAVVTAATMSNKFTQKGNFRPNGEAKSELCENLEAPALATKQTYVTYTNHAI
Compound,Emax (human mGlu4 receptor) [%],EC50 (human mGlu4 receptor) [nM],other results
"N[C@@H](CCP(=O)(O)O)C(=O)O [L-AP4, (2S)-2-amino-4-phosphonobutanoic acid]",,,neuroprotection [1]: neuroprotective effects
"O=C(Nc1ccccc1)C12CC1/C(=N\O)c1ccccc1O2 (single isomer, unassigned; (-)) [(−)-PHCCC]",,,nigrostriatal degeneration (mice treated with MPTP): reduced nigrostriatal degeneration
Cc1ccnc(Nc2nc(-c3cn[nH]c3)c(C)s2)n1 [ADX88178],,,"activity in marble burying test (mice [2]): active; activity in EPM (mice [3]): active; profile in rat EPM test (rats; rat, after oral dosing): anxiolytic-like profile; activity in EPM (rats; rats, reported by Addex 2010): active"
"CN1C(=O)N(c2c(F)cc(C#Cc3cccnc3)cc2F)C(=O)CC1(C)c1ccccc1 (stereo in doubt) [Example 20, (6R)-3-[2,6-Difluoro-4-[2-(3-pyridyl)ethynyl]phenyl]-1,6-dimethyl-6-phenyl-hexahydropyrimidine-2,4-dione]",175,239,
"COCC1(C)CC(=O)N(c2c(F)cc(C#Cc3ccccc3)cc2F)C(=O)N1C (racemic) [Example 30, (6RS)-3-[2,6-Difluoro-4-(2-phenylethynyl)phenyl]-6-(methoxymethyl)-1,6-dimethyl-hexahydropyrimidine-2,4-dione]",103,123,
"CN1C(=O)N(c2ccc(C#Cc3ccccc3)cc2)C(=O)CC1(C)c1ccccc1 (racemic) [Example 24, (6RS)-1,6-Dimethyl-6-phenyl-3-[4-(2-phenylethynyl)phenyl]hexahydropyrimidine-2,4-dione]",126,254,
"CC12CC(=O)N(c3c(F)cc(C#Cc4ccccc4)cc3F)C(=O)N1CCNC2=O (racemic) [Example 25, (9aRS)-7-[2,6-Difluoro-4-(2-phenylethynyl)phenyl]-9a-methyl-2,3,4,9-tetrahydropyrazino[1,2-c]pyrimidine-1,6,8-trione]",105,83,
"CN1C(=O)N(c2c(F)cc(C#Cc3ccccc3)cc2F)C(=O)CC12CCOC2 (racemic) [Example 12, (5RS)-8-[2,6-Difluoro-4-(2-phenylethynyl)phenyl]-6-methyl-2-oxa-6,8-diazaspiro[4.5]decane-7,9-dione]",115,260,
"CCC1(c2ccccc2)CC(=O)N(c2c(F)cc(C#Cc3cccnc3)cc2F)C(=O)N1C (racemic) [Example 48, (6RS)-3-[2,6-Difluoro-4-[2-(3-pyridyl)ethynyl]phenyl]-6-ethyl-1-methyl-6-phenyl-hexahydropyrimidine-2,4-dione]",108,88,
"CN1C(=O)N(c2ccc(C#Cc3ccccc3)cn2)C(=O)CC1(C)c1ccccc1 (racemic) [Example 23, (6RS)-1,6-Dimethyl-6-phenyl-3-[5-(2-phenylethynyl)-2-pyridyl]hexahydropyrimidine-2,4-dione]",126,947,
"CN1C(=O)N(c2c(F)cc(C#Cc3cccnc3)cc2F)C(=O)CC1(C)c1ccccc1Cl (racemic) [Example 40, (6RS)-6-(2-Chlorophenyl)-3-[2,6-difluoro-4-[2-(3-pyridyl)ethynyl]phenyl]-1,6-dimethyl-hexahydropyrimidine-2,4-dione]",109,394,
"CN1C(=O)N(c2c(F)cc(C#Cc3ccccc3)cc2Cl)C(=O)C[C@@]1(C)c1cccnc1 [Example 71, (6S)-3-[2-Chloro-6-fluoro-4-(2-phenylethynyl)phenyl]-1,6-dimethyl-6-(3-pyridyl)hexahydropyrimidine-2,4-dione]",105,148,

# Further molecules by falling EC50 (human mGlu4 receptor), results first:
Emax (human mGlu4 receptor) [%],EC50 (human mGlu4 receptor) [nM],Compound,other results
92,75,"CC(C)(C)C1(C)CC(=O)N(c2c(F)cc(C#Cc3ccccc3)cc2F)C(=O)N1 (racemic) [Example 43, (6RS)-6-tert-Butyl-3-[2,6-difluoro-4-(2-phenylethynyl)phenyl]-6-methyl-hexahydropyrimidine-2,4-dione]",
99,72,"CN1C(=O)N(c2c(F)cc(C#Cc3ccccc3)cc2F)C(=O)CC1(C)c1ccccn1 (racemic) [Example 27, (6RS)-3-[2,6-Difluoro-4-(2-phenylethynyl)phenyl]-1,6-dimethyl-6-(2-pyridyl)hexahydropyrimidine-2,4-dione]",
111,68,"CCN1C(=O)N(c2c(F)cc(C#Cc3ccccc3)cc2F)C(=O)C[C@@]1(C)c1ccnc(C)c1 [Example 77, (6S)-3-[2,6-Difluoro-4-(2-phenylethynyl)phenyl]-1-ethyl-6-methyl-6-(2-methyl-4-pyridyl)hexahydropyrimidine-2,4-dione]",
109,66,"CN1C(=O)N(c2c(F)cc(C#Cc3ccccc3)cc2F)C(=O)CC1(C)C(C)(C)C (racemic) [Example 44, (6RS)-6-tert-Butyl-3-[2,6-difluoro-4-(2-phenylethynyl)phenyl]-1,6-dimethyl-hexahydropyrimidine-2,4-dione]",
102,56,"Cc1cc([C@]2(C)CC(=O)N(c3c(F)cc(C#Cc4ccccc4)cc3F)C(=O)N2C)ccn1 [Example 62, (6S)-3-[2,6-Difluoro-4-(2-phenylethynyl)phenyl]-1,6-dimethyl-6-(2-methyl-4-pyridyl)hexahydropyrimidine-2,4-dione]",
114,43,"CN1C(=O)N(c2c(F)cc(C#Cc3ccccc3)cc2F)C(=O)C[C@@]1(C)c1ccc(=O)n(C)c1 [Example 66, (6S)-3-[2,6-Difluoro-4-(2-phenylethynyl)phenyl]-1,6-dimethyl-6-(1-methyl-6-oxo-3-pyridyl)hexahydropyrimidine-2,4-dione]",
109,42,"COc1ccc([C@]2(C)CC(=O)N(c3c(F)cc(C#Cc4ccccc4)cc3F)C(=O)N2C)cn1 [Example 63, (6S)-3-[2,6-Difluoro-4-(2-phenylethynyl)phenyl]-6-(6-methoxy-3-pyridyl)-1,6-dimethyl-hexahydropyrimidine-2,4-dione]",
98,37,"CN1C(=O)N(c2c(F)cc(C#Cc3ccccc3)cc2F)C(=O)C[C@@]1(C)c1cccnc1 [Example 49, (6S)-3-[2,6-Difluoro-4-(2-phenylethynyl)phenyl]-1,6-dimethyl-6-(3-pyridyl)hexahydropyrimidine-2,4-dione]",
